17 compounds from PubChem BioAssay AID248 (DTP/NCI, 2004) can be followed below.

Structures are written as SMILES. “And” between values parts separate entries of the source, which are not always exact repeats. Equal entries are not always repeated. Toxic doses and inconclusive results are not listed.

The subject of the assay is L1210 leukemia ip in BDF1 mice, survival T/C. As to the kind of experiment: NCI In Vivo Anticancer Drug Screen. Data for tumor model L1210 Leukemia (intraperitoneal) in B6D2F1 (BDF1) mice. Particulars: endpoint: mean survival time, higher = longer survival. In a few lines:
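Antitumor effect is assessed in tumor-bearing animals. Survival in the compound arm is compared with a vehicle-dosed control arm and expressed as their quotient.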

The mark [1] stands for this setting: dose: 100.0 mg/kg/injection, schedule: Q01DX009 (ip), vehicle: Klucel (hydroxypropylcellulose) (HPC).
Where [2] appears, read: dose: 100.0 mg/kg/injection, schedule: Q04DX003 (ip), vehicle: Klucel (hydroxypropylcellulose) (HPC).
The mark [3] stands for this setting: dose: 200.0 mg/kg/injection, schedule: Q01DX009 (ip), vehicle: Klucel (hydroxypropylcellulose) (HPC).
Setting [4] is: dose: 200.0 mg/kg/injection, schedule: Q04DX003 (ip), vehicle: Klucel (hydroxypropylcellulose) (HPC).
Setting [5] is: dose: 400.0 mg/kg/injection, schedule: Q01DX009 (ip), vehicle: Klucel (hydroxypropylcellulose) (HPC).
Where [6] appears, read: dose: 100.0 mg/kg/injection, schedule: Q04DX002 (ip), vehicle: Klucel (hydroxypropylcellulose) (HPC).
[7] abbreviates: dose: 200.0 mg/kg/injection, schedule: Q04DX002 (ip), vehicle: Klucel (hydroxypropylcellulose) (HPC).
[8] abbreviates: dose: 400.0 mg/kg/injection, schedule: Q04DX002 (ip), vehicle: Klucel (hydroxypropylcellulose) (HPC).
Where [9] appears, read: dose: 100.0 mg/kg/injection, schedule: Q01DX001 (ip), vehicle: saline.
[10] abbreviates: dose: 200.0 mg/kg/injection, schedule: Q01DX001 (ip), vehicle: saline.
Where [11] appears, read: dose: 400.0 mg/kg/injection, schedule: Q01DX001 (ip), vehicle: saline.
Setting [12] is: dose: 100.0 mg/kg/injection, schedule: Q01DX001 (ip), vehicle: other.
[13] abbreviates: dose: 200.0 mg/kg/injection, schedule: Q01DX001 (ip), vehicle: other.
[14] abbreviates: dose: 400.0 mg/kg/injection, schedule: Q01DX001 (ip), vehicle: other.
Setting [15] is: dose: 100.0 mg/kg/injection, schedule: Q01DX009 (ip), vehicle: saline.
The mark [16] stands for this setting: dose: 25.0 mg/kg/injection, schedule: Q01DX009 (ip), vehicle: Klucel (hydroxypropylcellulose) (HPC).
[17] abbreviates: dose: 50.0 mg/kg/injection, schedule: Q01DX009 (ip), vehicle: Klucel (hydroxypropylcellulose) (HPC).

For `CC(C)(C)C(=O)CC(=O)C(C)(C)C.CC(C)(C)C(=O)CC(=O)C(C)(C)C.CC(C)(C)C(=O)CC(=O)C(C)(C)C.CC(C)(C)C(=O)CC(=O)C(C)(C)C.[Ce]`, the T/C was 100 % of control under setting [1]; 103 % of control under setting [2]; 96 % of control under setting [3]; 94 % of control under setting [4]; 107 % of control under setting [5]; 106 % of control (dose: 400.0 mg/kg/injection, schedule: Q04DX003 (ip), vehicle: Klucel (hydroxypropylcellulose) (HPC)).

As for `CCCCCCCCCCCCC(O)(CC)C(=O)O` (stereo not given), the T/C reads like this: under setting [6], 98 % of control; under setting [7], 91 % of control; under setting [8], 91 % of control.

For `CSc1ccccc1/C=C(/C(=O)O)c1ccccc1O`, the T/C was 103 % of control (dose: 100.0 mg/kg/injection, schedule: Q01DX001 (ip), vehicle: saline with Tween-80); 97 % of control (dose: 200.0 mg/kg/injection, schedule: Q01DX001 (ip), vehicle: saline with Tween-80); 103 % of control (dose: 400.0 mg/kg/injection, schedule: Q01DX001 (ip), vehicle: saline with Tween-80).

In the case of `CC(C)(O)CCC1=C(O)c2ccccc2C(=O)C1=O`, the T/C is 100 % of control under setting [2] and 94 % of control under setting [4].

Take `Cc1cc(=O)n(C)c2c(C)cccc12`: the T/C (dose: 100.0 mg/kg/injection, schedule: Q04DX003 (ip), vehicle: saline with Tween-80) is 101 % of control; the T/C (dose: 200.0 mg/kg/injection, schedule: Q04DX003 (ip), vehicle: saline with Tween-80) is 98 % of control; the T/C (dose: 400.0 mg/kg/injection, schedule: Q04DX003 (ip), vehicle: saline with Tween-80) is 98 % of control.

As to `N#Cc1ccc(OCCCCOc2ccc([N+](=O)[O-])cc2Cl)cc1`, the T/C is, setting by setting: under setting [1], 91 % of control; under setting [3], 95 % of control; under setting [5], 101 % of control.

`Cc1ccc2nc(-c3ccccc3N)[nH]c2c1`: the T/C runs as follows: (dose: 100.0 mg/kg/injection, schedule: Q01DX009 (ip), vehicle: saline with Tween-80) 97 % of control; (dose: 200.0 mg/kg/injection, schedule: Q01DX009 (ip), vehicle: saline with Tween-80) 92 % of control; (dose: 400.0 mg/kg/injection, schedule: Q01DX009 (ip), vehicle: saline with Tween-80) 92 % of control.

With `CCCCCc1cc2c3c(c(=O)oc2cc1O)CCCCC3`, the T/C reads like this: (dose: 100.0 mg/kg/injection, schedule: Q04DX003 (ip), vehicle: gum acacia) 90 % of control; (dose: 200.0 mg/kg/injection, schedule: Q04DX003 (ip), vehicle: gum acacia) 88 % of control; (dose: 400.0 mg/kg/injection, schedule: Q04DX003 (ip), vehicle: gum acacia) 96 % of control.

Take `N#CC1(C#N)OC12CCS(=O)(=O)c1ccccc12` (stereo not given): the T/C is 88 % of control under setting [9], 95 % of control under setting [10] and 101 % of control under setting [11].

For the compound `Cc1cc(OC(=O)Nc2ccc(Cl)cc2)ccc1Cl`, the T/C runs as follows: under setting [12], 103 % of control; (dose: 100.0 mg/kg/injection, schedule: Q01DX009 (ip), vehicle: other) 93 % of control and 100 % of control; under setting [6], 106 % of control; (dose: 100.0 mg/kg/injection, schedule: Q04DX002 (ip), vehicle: other) 95 % of control and 91 % of control; (dose: 100.0 mg/kg/injection, schedule: Q04DX003 (ip), vehicle: other) 96 % of control; under setting [13], 96 % of control. The T/C is 93 % of control and 95 % of control (dose: 200.0 mg/kg/injection, schedule: Q01DX009 (ip), vehicle: other); 117 % of control under setting [7]; 100 % of control and 91 % of control (dose: 200.0 mg/kg/injection, schedule: Q04DX002 (ip), vehicle: other); 91 % of control (dose: 200.0 mg/kg/injection, schedule: Q04DX003 (ip), vehicle: other); 96 % of control under setting [14]; 92 % of control and 86 % of control (dose: 400.0 mg/kg/injection, schedule: Q01DX009 (ip), vehicle: other). The T/C was 95 % of control under setting [8]; 91 % of control and 92 % of control (dose: 400.0 mg/kg/injection, schedule: Q04DX002 (ip), vehicle: other); 95 % of control (dose: 400.0 mg/kg/injection, schedule: Q04DX003 (ip), vehicle: other).

For the compound `O=C(N/N=C/c1ccccc1)c1ccccc1`, the T/C was 102 % of control under setting [15]; 98 % of control (dose: 100.0 mg/kg/injection, schedule: Q04DX003 (ip), vehicle: alcohol); 104 % of control (dose: 200.0 mg/kg/injection, schedule: Q01DX009 (ip), vehicle: saline); 95 % of control (dose: 200.0 mg/kg/injection, schedule: Q04DX003 (ip), vehicle: alcohol); 96 % of control (dose: 400.0 mg/kg/injection, schedule: Q01DX009 (ip), vehicle: saline); 90 % of control (dose: 400.0 mg/kg/injection, schedule: Q04DX003 (ip), vehicle: alcohol).

As to `c1ccc(CCSc2ncnc3nc[nH]c23)cc1`, the T/C runs as follows: (dose: 31.3 mg/kg/injection, schedule: Q01DX Z (ip), vehicle: saline) 94 % of control; (dose: 62.5 mg/kg/injection, schedule: Q01DX Z (ip), vehicle: saline) 94 % of control; under setting [15], 122 % of control; (dose: 125.0 mg/kg/injection, schedule: Q01DX Z (ip), vehicle: saline) 97 % of control; (dose: 175.0 mg/kg/injection, schedule: Q01DX001 (ip), vehicle: saline) 100 % of control; (dose: 250.0 mg/kg/injection, schedule: Q01DX Z (ip), vehicle: saline) 100 % of control and 101 % of control. In addition, the T/C is, setting by setting: (dose: 265.0 mg/kg/injection, schedule: Q01DX001 (ip), vehicle: saline) 93 % of control; (dose: 340.0 mg/kg/injection, schedule: Q01DX009 (ip), vehicle: saline) 159 % of control; under setting [11], 108 % of control; (dose: 500.0 mg/kg/injection, schedule: Q01DX Z (ip), vehicle: saline) 111 % of control; (dose: 600.0 mg/kg/injection, schedule: Q01DX001 (ip), vehicle: saline) 101 % of control; (dose: 1000.0 mg/kg/injection, schedule: Q01DX Z (ip), vehicle: saline) 117 % of control.

`c1ccc(OCc2ccc(COc3ccccc3)cc2)cc1`: the T/C under setting [16] is 98 % of control; the T/C (dose: 25.0 mg/kg/injection, schedule: Q04DX003 (ip), vehicle: Klucel (hydroxypropylcellulose) (HPC)) is 97 % of control; the T/C under setting [17] was 92 % of control; the T/C (dose: 50.0 mg/kg/injection, schedule: Q04DX003 (ip), vehicle: Klucel (hydroxypropylcellulose) (HPC)) is 94 % of control; the T/C under setting [1] is 95 % of control; the T/C under setting [2] was 92 % of control.

Take `CC(C)CC(=O)Cc1ccccc1`: the T/C is, setting by setting: under setting [9], 105 % of control; under setting [10], 105 % of control; under setting [11], 105 % of control.

Regarding `N=c1c2ccccc2nnn1-c1ccccc1[N+](=O)[O-]`, the T/C runs as follows: (dose: 75.0 mg/kg/injection, schedule: Q01DX001 (ip), vehicle: other) 92 % of control; (dose: 150.0 mg/kg/injection, schedule: Q01DX001 (ip), vehicle: other) 99 % of control; (dose: 300.0 mg/kg/injection, schedule: Q01DX001 (ip), vehicle: other) 92 % of control.

`CCCCCCCCCC(=O)N/N=C\c1cccc2ccccc12`: the T/C by setting is: under setting [16], 90 % of control; under setting [17], 103 % of control; under setting [1], 87 % of control.

With `Cc1cc(CC(C)C)c(C(N)=O)cc1C`, the T/C reads like this: under setting [12], 108 % of control; under setting [13], 105 % of control; under setting [14], 103 % of control.
